Measurements as given in ChEMBL document CHEMBL4304776, “Indicaxanthin, a multi-target natural compound from Opuntia ficus-indica fruit: From its poly-pharmacological effects to biochemical mechanisms and molecular modelling studies” (Eur J Med Chem, 2019).

Assays:
[1] = Plasma concentration in rat at 2 uM/kg, po after 2.5 hrs; type: ADME, organism-based; conditions: in vivo
HUVEC = test: Antiinflammatory activity in HUVEC assessed as reduction in TNF-alpha induced ICAM1 protein expression at 5 uM incubated for 5 hrs followed by TNFalpha-induction and measured after 16 hrs by flow cytometric analysis relative to control; type: functional; conditions: Homo sapiens
B16-F10 [2] = test: Antitumor activity against […] cells xenografted in C57BL/6 mouse assessed as reduction in tumor volume at 3.2 mg/kg, po measured after 14 days post transfection relative to control; type: functional; conditions: 336 h
Caco-2 = test: Antiproliferative activity against human Caco2 cells assessed as reduction in cell viability after 48 hrs by MTT assay; type: functional, cell-based; conditions: Caco-2, 48 h
B16-F10 [3] = test: Antitumor activity against […] cells xenografted in C57BL/6 mouse assessed as reduction in tumor weight at 3.2 mg/kg, po measured after 14 days post transfection relative to control; type: functional; conditions: 336 h
B16-F10 [4] = test: Antitumor activity against […] cells xenografted in C57BL/6 mouse assessed as reduction in CXCL1 level at 3.2 mg/kg, po measured after 14 days post transfection relative to control; type: functional; conditions: 336 h
[5] = Drug concentration in rat brain at 2 umol/kg, po after 2.5 hrs; type: ADME, organism-based; conditions: read-out: Ct
Homo sapiens = species on record: Homo sapiens; test: Binding affinity to human LDL assessed per mg of protein
[6] = Drug concentration in rat brain cortex at […], po after 1 hr; type: ADME, organism-based; conditions: read-out: Ct
[7] = Drug concentration in rat brain cerebellum at […], po after 1 hr; type: ADME, organism-based; conditions: read-out: Ct

In the case of `O=C(O)C1=C/C(=C/C=[N+]2/CCC[C@H]2C(=O)[O-])C[C@@H](C(=O)O)N1`, the Cp [1] is reported as 0.2 µM, the inhibition at 5 µM (HUVEC) is reported as -15% and the inhibition in vivo at 3.2 mg/kg (B16-F10 [2]) is reported as 86%. It also gave an IC50 (Caco-2) of 115 µM, an inhibition in vivo at 3.2 mg/kg (B16-F10 [3]) of 83% and an inhibition in vivo at 3.2 mg/kg (B16-F10 [4]) of 42%. The concentration at 2.5 h [5] was 20 ng/g, the Bmax (Homo sapiens) was 0.52 nmol and the concentration at 1 h [6] was 50 ng/g. For the same molecule, the concentration at 1 h [7] was 90 ng/g.
